Results reported in patent publication US20170202780A1, “PHARMACEUTICAL COMPOSITION” (SENTAN Pharma Inc., priority 2014, published 2017).

Key:
[1] = system: model mouse of myocardial ischemia-reperfusion; assay: Selective drug delivery to ischemia reperfusion sites, fluorescence of heart specimens; type: in vivo; details: stereo microscope, heart specimen 24 h after reperfusion; iv at reperfusion, FITC 40 mg/kg or FITC-NP 800 mg/kg
Method: Mice (C57BL/6J, 8 to 10 weeks of age, male, 25 to 30 g, n=3) were intraperitoneally administered with pentobarbital sodium (60 mg/kg) or subjected to inhalation anesthesia with isoflurane. During the procedure, respiration was controlled by a mechanical ventilator (tidal volume: 0.5 ml, respiratory rate: 140 breaths/min); the mouse was kept warm using a heating pad so that the rectal temperature was maintained at 36.8° C. to 37.2° C. An incision was made horizontally at the level of the third to fourth intercostal space; and the pericardium was opened. […] ST change in electrocardiogram and a change in the color of cardiac muscles were observed and ischemia in the cardiac muscles was checked. The silicone tube was removed 30 minutes after the ligature. Reperfusion was carried out and at the same time 0.1 to 0.2 ml of solution of test substance was intravenously injected. The chest was closed using 5-0 silk suture; and then extubation was performed after spontaneous breathing was confirmed. The intravenously-injected test substance is FITC (40 mg/kg) or FITC-NP (800 mg/kg). […]
Twenty-four hours after the reperfusion, the mouse was anesthetized again and endotracheal intubation was conducted, followed by thoracotomy. […] In evaluation of the specimen, SMZ1500 (manufactured by Nikon Corporation) was employed as an optical and fluorescence microscope.

[2] = Maximum soluble amount of bulk drug for intravenous dosing; type: physicochemical; details: expressed as dose
[3] = system: model mouse of myocardial ischemia-reperfusion; assay: Infarct size (area of infarct region/area of AAR) after myocardial ischemia-reperfusion; type: in vivo; details: iv
Method: Mice (C57BL/6J, 8 to 10 weeks of age, male, 25 to 30 g, n=3) were intraperitoneally administered with pentobarbital sodium (60 mg/kg) or subjected to inhalation anesthesia with isoflurane. During the procedure, respiration was controlled by a mechanical ventilator (tidal volume: 0.5 ml, respiratory rate: 140 breaths/min); the mouse was kept warm using a heating pad so that the rectal temperature was maintained at 36.8° C. to 37.2° C. An incision was made horizontally at the level of the third to fourth intercostal space; and the pericardium was opened. […] ST change in electrocardiogram and a change in the color of cardiac muscles were observed and ischemia in the cardiac muscles was checked. […]
Twenty-four hours after the reperfusion, the mouse was anesthetized again and endotracheal intubation was conducted, followed by thoracotomy. […] In evaluation of the specimen, SMZ1500 (manufactured by Nikon Corporation) was employed as an optical and fluorescence microscope. […]
Each of the sections was stained in the same manner as described above; and the areas of infarct (region shown in white) and AAR (region shown in red) were each measured and the area of the infarct region/the area of AAR was calculated. […]
Each of the sections was stained in the same manner as described above; and the areas of infarct and AAR were each measured and the area of the infarct region/the area of AAR was calculated. […]

SMILES | fluorescence of FITC in the infarction site [1] | maximum soluble amount [2] [mg/kg] | reduction of the infarct size ([3]; pitavastatin dosed at 10 mg/kg) | reduction of the infarct size ([3]; irbesartan dosed at 3.0 mg/kg)
O=C1OC2(c3ccc(O)cc3Oc3cc(O)ccc32)c2ccc(N=C=S)cc21 [FITC] | not observed |  |  | 
CSc1ccc(C(=O)N[C@H]2CCCC[C@H]2NC(=O)CNC(=O)c2cc(C(F)(F)F)ccc2NC(=O)NC(C)C)cc1 (relative stereo) [BMS CCR2 22, 2-[(Isopropylaminocarbonyl)amino]-N-[2-[[cis-2-[[4-(methylthio)benzoyl]amino]cyclohexyl]amino]-2-oxoethyl]-5-(trifluoromethyl)benzamide] |  | 1.0 |  | 
O=C(O)C[C@H](O)C[C@H](O)/C=C/c1c(C2CC2)nc2ccccc2c1-c1ccc(F)cc1 [pitavastatin] |  | 10 | drastic reduction of the infarct size was not seen | 
CCCCC1=NC2(CCCC2)C(=O)N1Cc1ccc(-c2ccccc2-c2nnn[nH]2)cc1 [irbesartan] |  | 3.0 |  | drastic reduction of the infarct size was not seen
CCc1ccc(CCOc2ccc(CC3SC(=O)NC3=O)cc2)nc1 (stereo not shown) [pioglitazone] |  | 3.0 |  | 
